Reference: patent US12709734B2, “Human polarised three-dimensional cellular aggregates” (CAMBRIDGE ENTERPRISE LIMITED, priority 2018, dated 2026)
Entries after “also recorded” stand apart in the source; their conditions may differ.

Tests used:
[1] = test system: HYS01030 human induced pluripotent stem cell (iPSC) line; assay: Gastruloid formation from human induced pluripotent stem cells; assay type: cell-based; conditions: 3.5 uM Chiron 1 day before aggregation, aggregated in Chiron and ROCK inhibitor
Text: FIG. 8: Human gastruloids made from induced pluripotent stem cells. […] 6 representative examples are show. […] There is also some sign of a rosette-like or lumenised structure that expresses SOX2 in the posterior tip (arrowhead). 3 representative examples are shown.
We used a wild type hESC line (mSHEF7; REF) as well as two transgenic lines, the H9TV BRACHYURY-Venus reporter (Mendjan et al., 2014) and RUES2-GLR, the triple reporter for germ layer markers with BRACHYURY-H2B-mCerulean, SOX17-H2B-tdTomato and SOX2-mCitrine (Simunovic et al., 2018). We also used a human induced pluripotent stem cell line, known as HYS01030 (unpublished).

[2] = test system: hESCs (RUES2-GLR, MasterShef7); assay: Effect of Chiron pre-treatment on adherent hESCs (RT-qPCR, immunostaining); assay type: cell-based, human
Protocol: We pre-treated hESCs for 1 day in pluripotency medium supplemented with 3-3.5 μM of the Wnt signalling agonist, CHIR99021 (hereafter referred to as Chiron) before aggregation; effectively shifting the Chiron pulse to before the aggregation rather than 48 h after aggregation as is the case in mouse gastruloids (Baillie-Johnson, P., et al., 2015).
(§1) Before aggregation, hESCs cultured in 6-well plates were typically pretreated with 3-3.5 μM CHIR99021 (Chiron) in Nutristem for 24 h, unless otherwise stated.
Adherent cell staining was done using 1:200 Mouse anti-CDH2 (BD Biosciences, BD10920), 1:200 Rat anti-CDH1 (Takara, M108) and 1:200 Rabbit anti-BRACHYURY (AbCam, ab209665) primary antibodies. Quantification was performed using Fiji software on the whole image (histograms) or using a line ROI through the colony (line graph).
Gene expression was analysed from adherent cells using Trizol (Ambion LifeTechnologies) according to manufacturer's instructions. Total RNA was quantified using a NanoDrop 2000C (ThermoScientific) and 5 μg was added to a reverse transcription reaction with Superscript III (Invitrogen) according to manufacturer's instructions. Resultant cDNA was quantified by qPCR with SYBRGreen (Merck) using a liquid handling robot (Qiagility, Qiagen) and analysed on a RotorGeneQ thermocycler (Qiagen). Primer sequences can be found in Supplementary Table 1. Concentration of cDNA was estimated using an in-house MAK2 analysis method.

[3] = test system: RUES2-GLR human gastruloids; assay: Human gastruloid formation: elongation and germ layer reporter patterning after pre-treatment; assay type: cell-based; conditions: for elongation / BRA expression of gastruloids: 24 h pre-treatment of RUES2-GLR cells in Nutristem with the named factor (Wnt3a 100 ng/ml or BMP4 50 ng/ml instead of Chiron); for SOX2 expression domain / SOX17 expression: Chiron + 10 μM SB431542 24 h pre-treatment vs Chiron only, RUES2-GLR reporter
Protocol: as §1
For signal modulation experiments, RUES2-GLR cells were pre-treated for 1 day in Nutristem supplemented with 100 ng/ml recombinant human Wnt3a (5036-WN-010) or 50 ng/ml BMP4 (314-BP), and aggregated in E6 and ROCK inhibitor with additional supplementation as shown. Subsequent media changes were performed daily with E6 alone. To test the effect of signal modulation on gastruloid formation, RUES2-GLR cells were pre-treated in Nutristem supplemented with 3.25 μM Chiron and one of 1 μM LDN193189 (04-0074), 1 μM XAV-939 (04-0046), or 10 μM SB431542 (1614) before aggregation in E6 with 0.5 μM Chiron and ROCK inhibitor, unless otherwise stated. Subsequent media changes were performed daily with E6 alone.
An alternative, ‘dorsalised’ protocol used 3 μM Chiron, supplemented with 10 μM SB431542 Nodal inhibitor (SB431542) also in Nutristem for 24 h.
After pre-treatment, hESCs at 60-85% confluency were washed twice with PBS−/−. For detachment, 2 ml 0.5 mM EDTA in PBS−/− was applied per well and cells were incubated at 37° C., 5% CO2 for 6.5 min. The plate was then carefully tapped against a solid object to promote detachment and the suspension was pipetted up and down repeatedly (5-10−) with a P1000 to break remaining clumps into single cells.
The suspension was then transferred into a 15 ml centrifuge tube with 8 ml PBS−/− and centrifuged for 3-5 min at 1000 rpm. The supernatant was removed, cells were washed with PBS−/− and spun down again 3-5 min at 1000 rpm. Subsequently, depending on the pellet size, cells were resuspended in 500 μl to 2 ml Essential 6 (E6) medium (Gibco, life technologies) and counted using an automated cell counter (MoxiZ, Orflo). Optimal cell density should be around 1×10^6/ml. The specific number of cells optimized per cell line (400/well for RUES2-TR, 500/well for mSHEF7 and H9TV lines) were then added to E6 supplemented with 5 μM Rock Inhibitor and 3 μM Chiron. Using a multichannel pipette, cells in this suspension were plated in 40 μl per well of an ultra-low adhesion, round bottom 96-well plate (Costar, Corning Inc.). At 24 h after aggregation, 150 μl E6 were added into each well using a multichannel pipette. E6 (see Chen et al., 2011) was continuously exchanged every subsequent day by removing 150 μl per well and adding the same amount.
Human gastruloids made using the RUES2-GLR reporter line were specifically analysed for dynamic reporter expression. An in-house MATLAB script was developed to assess the dynamic fluorescent marker expression along the AP axis of human gastruloids. Widefield images of gastruloids were taken at 24 h, 48 h and 72 h and aligned along their anteroposterior axis with reference to fluorescent reporter expression. For each sample, a binary image was generated in the brightfield channel and used as a mask for all fluorescent channels and the major (length) axis was identified. Consequently, for every pixel along the length axis, the sum of intensity values of the respective channel along the width of the aggregate was divided by the width of the gastruloid at that specific point, yielding the normalized fluorescence intensity along the length of the sample. This process was then repeated for every acquired fluorescent channel. Gastruloids used for this analysis were a full set from one experimental batch, and images were only excluded from the analysis when anteroposterior alignment or binarization were unsuccessful.
In order to quantify the degree of elongation of human gastruloids, brightfield channel widefield images were imported into Fiji (Schindelin et al., 2012). The length of the longest axis was measured using the line tool, followed by the length of the perpendicular axis at the mid-point of the longest axis line. […]

[4] = test system: RUES2-GLR human gastruloids; assay: Tomo-sequencing of Chiron vs Chiron+SB431542 pre-treated human gastruloids; assay type: cell-based
Protocol: An alternative, ‘dorsalised’ protocol used 3 μM Chiron, supplemented with 10 μM SB431542 Nodal inhibitor (SB431542) also in Nutristem for 24 h. Tomo-sequencing was performed and analysed in an updated version of published methods (Junker et al., 2014; and Kruse et al., 2016). In short, gastruloids were sectioned along their AP axis, and the mRNA-content of each section was extracted using SORT-seq (Muraro et al., 2016). Paired end (75 bp) sequencing was performed on the resulting RNA-seq libraries using the Illumina Next-Seq sequencing platform. Read 1 contains the cell or section barcode and the unique molecular identifier (UMI). Read 2 contains the biological information. Reads 2 with a valid cell/section barcode were selected and mapped using STAR-2.5.3a with default parameters to the human GRCh38 genome (ENSEMBL version 93), and only reads mapping to gene bodies (exons or introns) were used for downstream analysis. Reads mapping simultaneously to an exon and to an intron were assigned to the exon. Mappabilities for the different samples range between 44% and 47%. For each cell or section, the number of transcripts was obtained as previously described […]. We refer to transcripts as unique molecules based on UMI correction. […] In each gastruloid, data was then normalized to the median number of unique transcripts per slice, and the z-score of each gene was extracted along sections. The reproducibility of AP expression pattern between different gastruloid replicates was scored for each gene using a random background model to calculate the Pearson correlation coefficient p-value. The p-value threshold to select reproducible genes was set at 0.001. […] Differential gene expression was performed by normalizing the transcripts in each section to 100,000 for all gastruloids; then pooling all sections of each gastruloid together; and finally assessing significant differentially expressed genes based on total expression using the Binomial test. An alternative, ‘dorsalised’ protocol used 3.25 μM Chiron, supplemented with 10 μM SB431542 Nodal inhibitor (SB431542) also in Nutristem for 24 h. They were then aggregated in E6 with 3 μM Chiron and ROCK inhibitor.

[5] = 120 h Chi+SB43 vs 72 h Chiron pre-treated gastruloids
[6] = Chi+SB43 vs Chi pre-treated gastruloids
[7] = Chiron + SB431542 pre-treated vs Chiron pre-treated gastruloids
[8] = of genes reproducible in either or both conditions, Chi+SB43 vs Chi

Molecule: Cc1c[nH]c(-c2cnc(NCCNc3ccc(C#N)cn3)nc2-c2ccc(Cl)cc2Cl)n1 [Chiron, CHIR99021]
- morphology of iPSC-derived aggregates [1]: polarised in their morphology at 72 hours
- expression of NANOG ([2]; 24 h Chiron pre-treatment vs Nutristem alone, RT-qPCR, RUES2-GLR): increased expression
- expression and membrane localisation of CDH1 (E-cadherin) / CDH2 (N-cadherin) ([2]; 24 h Chiron pre-treatment vs Nutristem, immunostaining of adherent colonies): switch in the expression and membrane localisation of CDH1 (E-cadherin) towards CDH2 (N-cadherin; also recorded: increase in the expression of membrane localised CDH2 (N-cadherin)
- expression of mesendodermal marker genes (BRA, MIXL1, LEFTY1, LEFTY2, AXIN2, EOMES, CDX1) ([2]; 1 day Chiron pre-treatment vs pluripotency medium alone, RT-qPCR): increased expression
- expression of pluripotency markers (POU5F1, SOX2) ([2]; 1 day pre-treatment with 3-3.5 μM Chiron vs pluripotency medium (Nutristem) alone, RT-qPCR): levels equivalent to cells maintained in pluripotency medium alone; also recorded: levels comparable to cells maintained in pluripotency medium alone
- levels of SOX2 ([2]; 1 day pre-treatment with 3-3.5 μM Chiron vs pluripotency medium alone, RT-qPCR): slightly reduced
- elongation / BRA expression of gastruloids [3]: strictly dependent on the Chiron pre-treatment
- aggregates displaying an elongated morphology ([3]; 72 h after aggregation, Chiron pre-treated RUES2-GLR, average of experiments): ~ 66%

Molecule: NC(=O)c1ccc(-c2nc(-c3ccc4c(c3)OCO4)c(-c3ccccn3)[nH]2)cc1 [SB431542]
- genes reproducibly localised in both conditions [4, 5]: 301 genes
- genes with loss of reproducible localisation [4, 5]: 509 genes
- genes with novel spatial localisation acquired [4, 5]: 944 genes
- expression of HOX genes (HOXC9, HOXA9, HOXC6) and SOX2 [4, 6]: up-regulation
- expression of Nodal signalling components and targets [4, 6]: down-regulation
- expression of cardiac development genes (TBX5, GATA6, LBX1, NKX2.5) [4, 6]: loss of many genes
- expression of definitive endoderm genes (SHH, LHX1, CER1, FOXA3, SORCS2, FOXA2) [4, 6]: decrease in expression
- domain-size and level of expression of SOX2 and SOX3 [4, 7]: increase in the domain-size and level of expression
- expression of BRA, CYP26A1 and WNT3A in the posterior domain [4, 7]: comparable to the Chiron pre-treated human gastruloids
- expression of FOXA2 [4, 7]: very little expression
- expression of Node-like markers NODAL, NOTO, PITX2, DAND5 [4, 7]: no detectable expression
- expression of asymmetry markers LEFTY1, LEFTY2 and anterior cardiac mesoderm markers GATA4, GATA6, HAND2 [4, 7]: little or no expression
- localisation of somitogenesis-like genes (MEOX, TCF15) ([4]; Chiron + SB431542 pre-treated vs Chiron pre-treated gastruloids (central region)): become anteriorly localised
- genes differentially expressed between the two treatments [4, 8]: 564 genes
- proportion of genes differentially expressed between the two treatments [4, 8]: 33%
- BRA expression pattern ([3]; Chiron + 10 μM SB431542 24 h pre-treatment): diffuse expression of BRA that approximated a gradient from anterior to posterior
- SOX2 expression domain [3]: distinctly larger domains of SOX2 expression
- SOX17 expression [3]: fewer, if any, SOX17 expressing cells
- SOX2 expression domain ([3]; listed as SB43): larger, well-defined SOX2 domain at their posterior end
- SOX17 expression ([3]; listed as SB43): absence of detectable SOX17 expression
- elongation and polarisation of gene expression ([3]; Chiron + 10 μM SB431542 24 h pre-treatment, compared to original method): able to elongate and polarise their gene expression

B1: Wnt3a: recombinant human Wnt3a (protein, UniProt P56704 19-352, looked up)
Protein Wnt-3a: SYPIWWSLAVGPQYSSLGSQPILCASIPGLVPKQLRFCRNYVEIMPSVAEGIKIGIQECQHQFRGRRWNCTTVHDSLAIFGPVLDKATRESAFVHAIASAGVAFAVTRSCAEGTAAICGCSSRHQGSPGKGWKWGGCSEDIEFGGMVSREFADARENRPDARSAMNRHNNEAGRQAIASHMHLKCKCHGLSGSCEVKTCWWSQPDFRAIGDFLKDKYDSASEMVVEKHRESRGWVETLRPRYTYFKVPTERDLVYYEASPNFCEPNPETGSFGTRDRTCNVSSHGIDGCDLLCCGRGHNARAERRREKCRCVFHWCCYVSCQECTRVYDVHTCK
- elongation / BRA expression of gastruloids [3]: insufficient to promote elongation or BRA expression

B2: BMP4: BMP4 protein used for pre-treatment, 50 ng/ml (protein, UniProt P12644 293-408, looked up)
Bone morphogenetic protein 4: SPKHHSQRARKKNKNCRRHSLYVDFSDVGWNDWIVAPPGYQAFYCHGDCPFPLADHLNSTNHAIVQTLVNSVNSSIPKACCVPTELSAISMLYLDEYDKVVLKNYQEMVVEGCGCR
- elongation / BRA expression of gastruloids [3]: insufficient to promote elongation or BRA expression
